Read-outs that look alike come from different tables or passages of the source.
How the values were obtained:
[1] = biological target: human IRE-1α (GST-IRE-1α) (Homo sapiens (Human), UniProt O75460); assay: IRE-1α assay in vitro: cleavage of Cy5/BHQ2-labelled mini-XBP-1 mRNA stem-loop substrate; assay type: biochemical; conditions: average IC50 for inhibition of IRE-1α
Protocol: In some embodiments IRE-la inhibitor compounds form a complex with IRE-1α. […] Other substrates also can be used to detect cleavage. See US 2007/0105123.
A fusion protein comprising glutathione S transferase (GST) and human IRE-1α (GST-IRE-1α) obtained from a 500 ml baculovirus-infected insect cell culture can be used to measure IRE-1α activity in vitro.
Five μl of a reaction mixture comprising IX reaction buffer (5× reaction buffer is 100 mM Hepes pH 7.5, 250 mM KOAc, 2.5 mM MgCl2), 3 mM DTT, and 0.4% polyethylene glycol water is added to each well of 384 well plates. Twenty-five nanoliters of a 1 mM test compound solution are added to test wells. Three μl of a […] IRE-1α preparation are added to each test well and to positive control wells (final concentration 5.82 ng/well). Negative control wells contain only reaction mixture and test compound.
After spinning the plates at 1200 rpm for 30 seconds, 3 μl of an IRE-1α human mini-XBP-1 mRNA stem-loop substrate 5′-[…]-3′ (SEQ ID NO:1), labeled with the fluorescent dye Cy5 at the 5′ end and Black Hole Quencher 2 (BH2) at the 3′ end, are added to each well of a control plate. The plates are again spun at 1200 rpm for 30 seconds. Final concentrations for the assay are: 63 nM IRE-1α substrate, 5.82 ng IRE-1α protein, and 2.5 μM test compound.
The plates are covered with lids and incubated for one hour at 30° C. The plates are then transferred to an ACQUEST™ microplate reader. Data is analyzed using data analysis software, and the percent activity of IRE-1α is calculated.
IC50 for inhibition of IRE-1α of compounds identified in Table 1 was measured as described in EXAMPLE 35.

[2] = tested on: IRE-1α-mediated XBP-1 splicing in human myeloma MM.1s cells; assay: Cellular EC50: endogenous XBP-1 splicing in myeloma cells by RT-PCR (DTT stress); assay type: cell-based; conditions: MM1.S, read-out: EC50_av
How it was run: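 MM.1s myeloma cells were pretreated with compound 1.25 h, then stressed with 2 mM DTT for 45 min more (2 h total). XBP-1 was amplified by RT-PCR from total RNA with intron-flanking primers; ED50 taken at 50% spliced XBP-1s of total XBP-1.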

[3] = tested on: human myeloma RPMI8226 tumor xenografts; assay: RPMI8226 xenograft efficacy model; assay type: in vivo, SCID mice; conditions: 0.75 mg/kg IV twice weekly
Protocol: SCID mice are evaluated for their ability to support implantation of desired tumor cells in support of model development and characterization. Mice are injected intravenously […] or implanted either subcutaneously (SC) or intraperitoneally (IP). To generate a relevant animal model mimicking human disease, it is desirable that all three approaches are evaluated for improved implantation rates and relevant disease progression, as is well known in the art. SC injections provide an easy way to measure tumor growth and efficacy, and IV and IP injections represent a more physiologically relevant model of human tumor spread. SC injections are given primarily in the flank, while IV injections are administered in the tail vein. Mice are manually restrained for SC and IP injections, and a Broome mouse restrainer is used for IV injections.
SCID mice are implanted with tumor cells (human RPMI8226 myeloma cells) via IP, IV or SC routes based on the results from the xenograft model development studies (above). Mice are treated with compound or mock treated (vehicle) for a period of up to 4-5 weeks. Compound administration can be via IV, IP, PO or SC routes. […]
Mice are monitored for tumor growth, regression and general health. […] Tumor growth is measured by calipers, ultrasound, or by abdominal lavage. Biomarkers in the blood or tumor can evaluated (primarily XBP-1 splicing). […]

[4] = average cellular EC50, XBP-1 splicing in myeloma cells

Sequence of human IRE-1α (GST-IRE-1α) (O75460 19-977): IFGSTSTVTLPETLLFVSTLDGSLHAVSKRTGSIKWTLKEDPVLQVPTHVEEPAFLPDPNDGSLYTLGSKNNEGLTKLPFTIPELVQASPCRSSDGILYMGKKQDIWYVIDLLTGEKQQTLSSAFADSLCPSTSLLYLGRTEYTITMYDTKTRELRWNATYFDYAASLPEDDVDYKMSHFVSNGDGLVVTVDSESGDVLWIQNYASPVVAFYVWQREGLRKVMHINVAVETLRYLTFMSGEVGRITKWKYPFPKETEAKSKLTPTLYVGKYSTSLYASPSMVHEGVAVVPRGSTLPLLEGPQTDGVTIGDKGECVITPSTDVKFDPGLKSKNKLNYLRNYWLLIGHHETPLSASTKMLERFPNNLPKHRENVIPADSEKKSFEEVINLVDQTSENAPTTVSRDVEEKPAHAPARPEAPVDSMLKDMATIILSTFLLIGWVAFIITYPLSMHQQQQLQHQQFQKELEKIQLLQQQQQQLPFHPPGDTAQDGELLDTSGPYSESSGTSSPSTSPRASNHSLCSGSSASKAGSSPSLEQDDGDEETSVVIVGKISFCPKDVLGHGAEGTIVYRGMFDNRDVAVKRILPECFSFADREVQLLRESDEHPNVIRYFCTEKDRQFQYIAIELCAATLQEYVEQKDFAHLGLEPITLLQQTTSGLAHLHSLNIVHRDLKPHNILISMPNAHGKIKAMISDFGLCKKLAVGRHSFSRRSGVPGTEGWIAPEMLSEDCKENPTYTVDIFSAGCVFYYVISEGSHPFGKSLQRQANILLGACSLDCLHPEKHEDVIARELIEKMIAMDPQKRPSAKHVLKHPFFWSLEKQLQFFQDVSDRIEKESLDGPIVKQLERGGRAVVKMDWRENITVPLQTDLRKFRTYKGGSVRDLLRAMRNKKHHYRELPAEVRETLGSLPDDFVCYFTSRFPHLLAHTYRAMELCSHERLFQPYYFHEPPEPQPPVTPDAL

Structure (SMILES) | IC50 [1] [µM] | EC50 [2, 4] [µM] | EC50 [2] [µM] | tumor growth [3]
COc1cc2c(C)c(CCC(=O)NCCO)c(=O)oc2c(C=O)c1O [Example 147] | < 0.1 | > 10 |  | 
COCCNC(=O)c1ccc(-c2c(C)c3cc(Cl)c(O)c(C=O)c3oc2=O)cc1 [Example 150] | < 1 |  | > 10 | 
COCCOc1cc(O)c(C=O)c2oc(=O)c(CCC(=O)N3CCOCC3)c(C)c12 [Example 153] | < 0.1 | < 10 |  | 
COCCOc1cc(O)c(C=O)c2oc(=O)c(CCC(=O)N3CCN(C)CC3)c(C)c12 [Example 154] | < 0.1 |  | < 10 | 
CCNC(=O)CCc1c(C)c2c(OCCOC)cc(O)c(C=O)c2oc1=O [Example 155] | < 1 |  | < 10 | 
COc1cc2c(C)c(CC(=O)N3CCN(C)CC3)c(=O)oc2c(C=O)c1O [Example 168] | < 0.1 | < 10 |  | 
CCNC(=O)Cc1c(C)c2cc(OC)c(O)c(C=O)c2oc1=O [Example 169] | < 0.1 | < 10 |  | 
COc1cc2c(C)c(CC(=O)NCCN(C)C)c(=O)oc2c(C=O)c1O [Example 170] | < 1 | < 10 |  | 
COCCNC(=O)CCc1c(C)c2cc(OC)c(O)c(C=O)c2oc1=O [Example 171] | < 0.1 |  | < 10 | 
COc1cc2c(C)c(CCC(=O)N3CCN(C)CC3)c(=O)oc2c(C=O)c1O [Example 173] | < 0.1 |  | < 10 | 
COCCNC(=O)Cc1c(C)c2c(OC)cc(O)c(C=O)c2oc1=O [Example 176] | < 0.1 | < 10 |  | 
COc1cc(O)c(C=O)c2oc(=O)c(CC(=O)NCCN(C)C)c(C)c12 [Example 180] | < 0.1 | < 10 |  | 
COCCNC(=O)CCc1c(C)c2cc(OCCOC)c(O)c(C=O)c2oc1=O [Example 184] | < 0.1 | < 10 |  | 
COCCOc1cc2c(C)c(CCC(=O)NCCN(C)C)c(=O)oc2c(C=O)c1O [Example 185] | < 0.1 |  | > 10 | 
COCCNC(=O)CCc1c(C)c2c(OC)cc(O)c(C=O)c2oc1=O [Example 194] | < 0.1 | < 10 |  | 
COc1cc2c(C(F)(F)F)cc(=O)oc2c(C=O)c1O [Example 197] | < 1 | < 10 |  | 
COc1cc2c3c(c(=O)oc2c(C=O)c1O)CCC3 [Example 198] | > 1 |  | < 10 | 
COc1cc2c(C)c(C)c(=O)oc2c(C=O)c1O [Example 199] | < 0.1 | > 10 |  | 
COc1cc2c(C)c(C(C)C)c(=O)oc2c(C=O)c1O [Example 200] | < 0.1 |  | > 10 | 
Cc1c(CCC(=O)NCCN2CCOCC2)c(=O)oc2c(C=O)c(O)ccc12 [Example 201] | < 0.1 | < 10 |  | 
CC(C)C[C@H](NC(=O)[C@H](Cc1ccccc1)NC(=O)c1cnccn1)B(O)O [bortezomib, [(1R)-3-methyl-1-[[(2S)-1-oxo-3-phenyl-2-[(pyrazinylcarbonyl)amino]propyl]amino]butyl]boronic acid] |  |  |  | suppression of tumor growth

More lines, main results first:

IC50 [1] [µM] | EC50 [2, 4] [µM] | Structure (SMILES) | EC50 [2] [µM] | tumor growth [3]
< 0.1 | < 10 | COc1cc2c(C(C)C)cc(=O)oc2c(C=O)c1O [Example 146] |  | 
< 0.1 | > 10 | COc1cc2c(C)c(CC(=O)NCCO)c(=O)oc2c(C=O)c1O [Example 148] |  | 
< 1 | < 10 | COCOCCNC(=O)Cc1c(C)c2cc(OC)c(O)c(C=O)c2oc1=O [Example 149] |  | 
< 1 | > 10 | Cc1c(-c2ccc(C(=O)NCCN3CCOCC3)cc2)c(=O)oc2c(C=O)c(O)c(Cl)cc12 [Example 151] |  | 
< 1 | < 10 | COCCNC(=O)CCc1c(C)c2c(OCCOC)cc(O)c(C=O)c2oc1=O [Example 152] |  | 
< 1 | > 10 | COCCOc1cc(O)c(C=O)c2oc(=O)c(CCC(=O)NCCN3CCOCC3)c(C)c12 [Example 156] |  | 
< 1 | > 10 | COCCOc1cc(O)c(C=O)c2oc(=O)c(CCC(=O)NCCN(C)C)c(C)c12 [Example 157] |  | 
< 1 | < 10 | COCCNC(=O)Cc1c(C)c2cc(OC)c(O)c(C=O)c2oc1=O [Example 166] |  | 
< 0.1 | < 10 | COc1cc2c(C)c(CCC(=O)N3CCOCC3)c(=O)oc2c(C=O)c1O [Example 172] |  | 
< 0.1 | < 10 | CCNC(=O)CCc1c(C)c2cc(OC)c(O)c(C=O)c2oc1=O [Example 174] |  | 
< 1 | > 10 | COc1cc2c(C)c(CCC(=O)NCCN(C)C)c(=O)oc2c(C=O)c1O [Example 175] |  | 
< 0.1 | < 10 | COc1cc(O)c(C=O)c2oc(=O)c(CC(=O)N3CCOCC3)c(C)c12 [Example 177] |  | 
< 1 | < 10 | COc1cc(O)c(C=O)c2oc(=O)c(CC(=O)NCCN3CCOCC3)c(C)c12 [Example 179] |  | 
< 0.1 | < 10 | COCCOc1cc2c(C)c(CCC(=O)N3CCOCC3)c(=O)oc2c(C=O)c1O [Example 181] |  | 
< 0.1 | < 10 | COCCOc1cc2c(C)c(CCC(=O)N3CCN(C)CC3)c(=O)oc2c(C=O)c1O [Example 182] |  | 
< 1 | > 10 | COCCOc1cc2c(C)c(CCC(=O)NCCN3CCOCC3)c(=O)oc2c(C=O)c1O [Example 186] |  | 
< 1 | < 10 | COc1cc(O)c(C=O)c2oc(=O)c(CCC(=O)N3CCOCC3)c(C)c12 [Example 192] |  | 
< 0.1 | < 10 | COc1cc(O)c(C=O)c2oc(=O)c(CCC(=O)N3CCN(C)CC3)c(C)c12 [Example 193] |  | 
< 0.1 | < 10 | COc1cc(O)c(C=O)c2oc(=O)c(CCC(=O)NCCN3CCOCC3)c(C)c12 [Example 196] |  | 
